From patent publication US20080274892A1, “Novel Haloalkylsulfonanilide Derivative, Herbicide, and Method of Use Thereof” (priority 2005, published 2008)

Assays:
bulrush [1] = assay: Test Example 1: herbicidal efficacy on rice paddy weeds pre-emergence; type: in vivo, Scirpus juncoides; details: 21 days
false pimpernel [2] = assay: as above; type: in vivo, Lindernia pyxidaria; details: 21 days
barnyard glass = assay: Test Example 2: herbicidal efficacy on rice paddy weeds post-emergence; type: in vivo, Echinochloa crus-galli; details: post-emergence, one leaf stage, 21 days after treatment
Summary of the method: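 Efficacy on paddy weeds was scored on a 0 to 4 growth-inhibition scale: 4 for 90%-100%, 3 for 70%-89%, 2 for 40%-69%, 1 for 1%-39% and 0 for 0%. Barnyard glass was grown in clay loam in 75 cm^2 pots under 5 cm of water in a hot house. It was compared with untreated pots 21 days after treatment.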

bulrush [3] = assay: as above; type: in vivo, Scirpus juncoides; details: post-emergence, one leaf stage, 21 days after treatment
false pimpernel [4] = assay: as above; type: in vivo, Lindernia pyxidaria; details: post-emergence, one leaf stage, 21 days after treatment
[5] = system: paddy rice plant (cultivar: Nihonbare); assay: Test Example 3: phytotoxicity test for transplanted paddy rice plant; type: in vivo; details: transplanted rice, 21 days after treatment
Summary of the method: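 Clay loam soil was placed in a 75 cm^2 plastic pot and flooded to a water depth of 5 cm. Two Nihonbare paddy rice plants at the two-leaf stage were transplanted 1 cm deep and grown in a hot house. After treatment, pots stayed in the hot house for 21 days, and phytotoxicity was then graded against an untreated control.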

bulrush [6] = assay: Test Example 4: low dosage test for rice paddy weeds; type: in vivo, Scirpus juncoides; details: 300 g/ha as an active ingredient; plants treated at the one leaf stage; 21 days after treatment; vs untreated control
Excerpt: (§1) The standard of judgment for herbicidal efficacy (degree of growth inhibition) and phytotoxicity 4 . . . 90%-100% of herbicidal efficacy or phytotoxicity 3 . . . 70%-89% of herbicidal efficacy or phytotoxicity 2 . . . 40%-69% of herbicidal efficacy or phytotoxicity 1 . . . 1%-39% of herbicidal efficacy or phytotoxicity 0 . . . 0% of herbicidal efficacy or phytotoxicity
A 75 cm^2 plastic pot was filled with soil (clay loam) and planted seeds of bulrush which is a rice paddy weed. After covering the top with 75 cm^3 soil, the pot was filled with water so that the soil submerged under 5 cm depth of water and kept in a hot house. The test plants, at the one leaf stage, were treated with the solution of a formulation containing the compound of the present invention as an active ingredient at the predetermined effective dosage (300 g/ha as an active ingredient). The pots were kept in a hot house for 21 days after the treatment and the herbicidal efficacy was investigated and evaluated according to the standard in Test Example 1 by comparing with the untreated control. Further, as a comparative compound, the compound No. 6-28 described in the JP-A-2004-107322 was used.

[7] = system: transplanted paddy rice plant and Bulrush; assay: Test Example 5: selectivity between transplanted paddy rice plant and weeds; type: in vivo; details: (highest dosage with no phytotoxicity to paddy rice)/(lowest dosage with effective level 4 on Bulrush); rice 3000-100 g/ha, Bulrush 300-10 g/ha; 21 days
Description: as §1
Phytotoxicity test for transplanted paddy rice plants was carried out, as in Test Example 3, by the treatment of 3000, 1000, 300 and 100 (g/ha of the active ingredient) dosage, and herbicidal test to weed post-emergence was carried out to Burlush seeded as in Test Example 2 treating at 300, 100, 30 and 10 (g/ha) dosage. The pots were kept in a hot house for 21 days after the treatment, and the phytotoxicity and the herbicidal efficacy was investigated and evaluated according to the standard in Test Example 1 by comparing with the untreated control. […] Further, as a comparative compound, the compound No. 6-28 described in the JP-A-2004-107322 was used.

[8] = dosage 1000 g/ha, treated 5 days after transplantation

Row | Compound | Bulrush pre (herbicidal efficacy grade) (bulrush [1]; dosage 1000 g/ha) | False pimpernel pre (herbicidal efficacy grade) (false pimpernel [2]; dosage 1000 g/ha) | Burnyard grass post (herbicidal efficacy grade) (barnyard glass; dosage 1000 g/ha) | Bulrush post (herbicidal efficacy grade) (bulrush [3]; dosage 1000 g/ha) | False pimpernel post (herbicidal efficacy grade) (false pimpernel [4]; dosage 1000 g/ha) | Phytotoxicity to paddy rice [5, 8] | Herbicide effect to Bulrush (bulrush [6]) | Selective Index [7] | Bulrush pre (herbicidal efficacy grade) (bulrush [1]; dosage 300 g/ha) | False pimpernel pre (herbicidal efficacy grade) (false pimpernel [2]; dosage 300 g/ha) | Burnyard grass post (herbicidal efficacy grade) (barnyard glass; dosage 300 g/ha) | Bulrush post (herbicidal efficacy grade) (bulrush [3]; dosage 300 g/ha) | False pimpernel post (herbicidal efficacy grade) (false pimpernel [4]; dosage 300 g/ha) | Phytotoxicity to paddy rice ([5]; dosage 300 g/ha)
1 | CC(C)COC(=O)N(c1ccccc1CN1CC(C)OC1=S)S(=O)(=O)C(F)(F)F (stereo not drawn) [Compound No. 1-22, 5-methyl-3-{2-[N-(isobutoxycarbonyl)-N-(trifluoromethanesulfonyl)amino]benzyl}-2-oxazolidinethione] | 4 (90%-100% of herbicidal efficacy or phytotoxicity) | 4 (90%-100% of herbicidal efficacy or phytotoxicity) | 4 (90%-100% of herbicidal efficacy or phytotoxicity) | 4 (90%-100% of herbicidal efficacy or phytotoxicity) | 4 (90%-100% of herbicidal efficacy or phytotoxicity) | 0 (0% of herbicidal efficacy or phytotoxicity) | 4 (90%-100% of herbicidal efficacy or phytotoxicity) | 33 | – | – | – | – | – | –
2 | COCC1(C)CN(Cc2ccccc2N(C(=O)OCC(C)(C)C)S(=O)(=O)C(F)(F)F)C(=O)O1 (stereo not drawn) [1-146] | 4 (90%-100% of herbicidal efficacy or phytotoxicity) | 4 (90%-100% of herbicidal efficacy or phytotoxicity) | 4 (90%-100% of herbicidal efficacy or phytotoxicity) | 4 (90%-100% of herbicidal efficacy or phytotoxicity) | 4 (90%-100% of herbicidal efficacy or phytotoxicity) | 1 (1%-39% of herbicidal efficacy or phytotoxicity) | 4 (90%-100% of herbicidal efficacy or phytotoxicity) | 10 | – | – | – | – | – | –
3 | COC(=O)N(c1ccccc1CN1CC2(CCCCC2)OC1=O)S(=O)(=O)C(F)(F)F [1-149] | 4 (90%-100% of herbicidal efficacy or phytotoxicity) | 4 (90%-100% of herbicidal efficacy or phytotoxicity) | 4 (90%-100% of herbicidal efficacy or phytotoxicity) | 4 (90%-100% of herbicidal efficacy or phytotoxicity) | 4 (90%-100% of herbicidal efficacy or phytotoxicity) | 2 (40%-69% of herbicidal efficacy or phytotoxicity) | 4 (90%-100% of herbicidal efficacy or phytotoxicity) | 10 | – | – | – | – | – | –
4 | CCCC1(C)CN(Cc2ccccc2NS(=O)(=O)C(F)(F)F)C(=O)O1 (racemic) [1-120] | – | – | – | – | – | – | 4 (90%-100% of herbicidal efficacy or phytotoxicity) | 10 | 4 (90%-100% of herbicidal efficacy or phytotoxicity) | 4 (90%-100% of herbicidal efficacy or phytotoxicity) | 3 (70%-89% of herbicidal efficacy or phytotoxicity) | 4 (90%-100% of herbicidal efficacy or phytotoxicity) | 4 (90%-100% of herbicidal efficacy or phytotoxicity) | 2 (40%-69% of herbicidal efficacy or phytotoxicity)
5 | COC(=O)N(c1ccccc1CN1CC(C)(C(C)C)OC1=O)S(=O)(=O)C(F)(F)F (racemic) [1-114] | 4 (90%-100% of herbicidal efficacy or phytotoxicity) | 4 (90%-100% of herbicidal efficacy or phytotoxicity) | 4 (90%-100% of herbicidal efficacy or phytotoxicity) | 4 (90%-100% of herbicidal efficacy or phytotoxicity) | 4 (90%-100% of herbicidal efficacy or phytotoxicity) | 2 (40%-69% of herbicidal efficacy or phytotoxicity) | 4 (90%-100% of herbicidal efficacy or phytotoxicity) | 30 | – | – | – | – | – | –
6 | CCCC1(CC)CN(Cc2ccccc2N(C(=O)OC)S(=O)(=O)C(F)(F)F)C(=O)O1 (stereo not drawn) [1-144] | 4 (90%-100% of herbicidal efficacy or phytotoxicity) | 4 (90%-100% of herbicidal efficacy or phytotoxicity) | 4 (90%-100% of herbicidal efficacy or phytotoxicity) | 4 (90%-100% of herbicidal efficacy or phytotoxicity) | 4 (90%-100% of herbicidal efficacy or phytotoxicity) | 1 (1%-39% of herbicidal efficacy or phytotoxicity) | 4 (90%-100% of herbicidal efficacy or phytotoxicity) | 10 | – | – | – | – | – | –
7 | CC[C@@H]1CN(Cc2ccccc2NS(=O)(=O)C(F)(F)F)C(=O)O1 [1-57] | 4 (90%-100% of herbicidal efficacy or phytotoxicity) | 4 (90%-100% of herbicidal efficacy or phytotoxicity) | 4 (90%-100% of herbicidal efficacy or phytotoxicity) | 4 (90%-100% of herbicidal efficacy or phytotoxicity) | 4 (90%-100% of herbicidal efficacy or phytotoxicity) | 1 (1%-39% of herbicidal efficacy or phytotoxicity) | 4 (90%-100% of herbicidal efficacy or phytotoxicity) | 10 | – | – | – | – | – | –
8 | CC(C)COC(=O)N(c1ccccc1CN1CC(C)(C(C)C)OC1=O)S(=O)(=O)C(F)(F)F (racemic) [1-102] | 4 (90%-100% of herbicidal efficacy or phytotoxicity) | 4 (90%-100% of herbicidal efficacy or phytotoxicity) | 4 (90%-100% of herbicidal efficacy or phytotoxicity) | 4 (90%-100% of herbicidal efficacy or phytotoxicity) | 4 (90%-100% of herbicidal efficacy or phytotoxicity) | 1 (1%-39% of herbicidal efficacy or phytotoxicity) | 4 (90%-100% of herbicidal efficacy or phytotoxicity) | 10 | – | – | – | – | – | –
9 | COC(=O)N(c1ccccc1CN1CC(C)(C)OC1=O)S(=O)(=O)C(F)(F)F [1-64] | 4 (90%-100% of herbicidal efficacy or phytotoxicity) | 4 (90%-100% of herbicidal efficacy or phytotoxicity) | 4 (90%-100% of herbicidal efficacy or phytotoxicity) | 4 (90%-100% of herbicidal efficacy or phytotoxicity) | 4 (90%-100% of herbicidal efficacy or phytotoxicity) | 2 (40%-69% of herbicidal efficacy or phytotoxicity) | 4 (90%-100% of herbicidal efficacy or phytotoxicity) | ≧30 | – | – | – | – | – | –
